Data published in US8716192B2, “Micro RNAs for identification of exposure to lower aliphatic saturated aldehydes and the method of identification using thereof” (Korea Institute of Science and Technology, priority 2012, dated 2014).
Like-named read-outs stand apart in the source and are kept apart here.

Experiments:
A549 cells [1] = assay: in vitro; type: cell-based, human
Method: (§1) A549 cells (Korean Cell Line Bank), the human lung cancer tissue derived cell line, were cultured in 100 mm dish containing RPMI (Gibro-BRL, USA) supplemented with 10% FBS until the confluency reached 80%. […] The concentration of vehicle was up to 0.1% in every experiment.
(§2) MTT assay was performed with A549 cell line according to the method of Mossman, et al (J. Immunol. Methods, 65, 55-63, 1983).
(§3) 48 hours later, 5 mg/ml of MTT (3-4,5-dimethylthiazol-2,5-diphenyltetra zolium bromide) was added thereto, followed by culture at 37° C. for 3 hours. Then, the medium was discarded and the formed formazan crystal was dissolved in 500 μl of DMSO, which was aliquoted in 96-well plate. OD540 was measured.

[2] = tested on: hsa-miR-28-5p (MIMAT0000085); assay: Micro RNA microarray, change of hsa-miR-28-5p expression; type: cell-based, human; conditions: for Change (Fold) hsa-miR-28-5p: A549, treated at IC20 for 48 hours, microarray, versus control
A549 cells [3] = assay: Micro RNA expression pattern by oligo microarray (Agilent Human miRNA array v16.0, 1347 human micro RNAs); type: cell-based; conditions: A549, treated at IC20 for 48 hours; for number of up-regulated micro RNAs out of 1347 / up-regulated micro RNA, share of 1347 micro RNAs: signal ratio to control higher than 1.5; for down-regulated micro RNA, share of 1347 micro RNAs / number of down-regulated micro RNAs out of 1347: signal ratio to control lower than 0.66
[4] = tested on: hsa-miR-590-5p (MIMAT0003258); assay: Micro RNA microarray, change of hsa-miR-590-5p expression; type: cell-based, human; conditions: for Change (Fold) hsa-miR-590-5p: A549, treated at IC20 for 48 hours, microarray, versus control
in vitro = type: cell-based, human; conditions: human
Method: as §1, §2, §3

Structure (SMILES)	IC20 (A549 cells [1]) [µM]	Change (Fold) hsa-miR-28-5p [2] [Fold]	number of up-regulated micro RNAs out of 1347 (A549 cells [3])	up-regulated micro RNA, share of 1347 micro RNAs (A549 cells [3]) [%]	down-regulated micro RNA, share of 1347 micro RNAs (A549 cells [3]) [%]	number of down-regulated micro RNAs out of 1347 (A549 cells [3])	Change (Fold) hsa-miR-590-5p [4] [Fold]	expression level of hsa-miR-590-5p compared to the normal control group ([4]; result in words)	expression level of hsa-miR-28-5p compared to the normal control group ([2]; result in words)	expression level of hsa-miR-28-5p compared to the normal control group [2]	expression level of hsa-miR-590-5p compared to the normal control group [4]	IC20 at 48 h (in vitro) [µM]
CCCC=O [butylaldehyde]	4600	0.962	14	1.04	0.82	11	0.563	down-regulated	–	–	–	–
CCCCCCC=O [heptanal]	–	0.922	0	0.00	0.30	4	0.512	down-regulated	down-regulated	–	–	–
CCCCCC=O [hexanal]	–	–	5	0.37	0.07	1	–	–	–	up-regulated	up-regulated	–
CCCCCCCCC=O [nonanal]	–	1.569	6	0.45	0.00	0	0.966	down-regulated	up-regulated	–	–	440
CCCCCCCC=O [octanal]	–	0.755	one	0.07	1.04	14	0.508	down-regulated	down-regulated	–	–	–
CCC=O [propionaldehyde]	–	–	13	0.97	0.15	2	–	–	up-regulated	–	–	–
CCCCC=O [valeraldehyde]	–	1.660	8	0.59	0.15	5	1.253	up-regulated	up-regulated	–	–	–
